Here are results for eleven molecules from ChEMBL document CHEMBL6114956, “Design, synthesis, and evaluation of the pharmacological activity of novel NMDA receptor antagonists based on the germacrone scaffold” (2025).

Assay [1] relates to PC-12. The experiment in a line: Neuroprotective activity against NMDA-induced cell injury in rat PC12 cells at 0.05 uM incubated for 12 hrs by MTT assay relative to control. The assay is classed as functional.
Assay [2] concerns PC-12. The assay can be described thus: Neuroprotective activity against NMDA-induced cell injury in rat PC12 cells at 5 uM incubated for 12 hrs by MTT assay relative to control. The assay is classed as functional. In general terms: Tetrazolium assays rely on reduction of a dye to a coloured formazan, in cell work by metabolically active cells.
For assay [3], the system named is PC-12. The assay can be described thus: Neuroprotective activity against NMDA-induced cell injury in rat PC12 cells at 0.5 uM incubated for 12 hrs by MTT assay relative to control. Type of assay: functional.
Assay [4] has as its target Glutamate NMDA receptor (Rattus norvegicus) (UniProt P35439+Q00959+Q00960+Q00961+Q62645+Q8VHN2+Q9R1M7). The assay can be described thus: Antagonist activity at NMDAR in rat PC12 cells assessed as inhibition of NMDA-induced Ca2+ influx at 0.05 uM preincubated for 6 hrs followed by NMDA addition measured for 1 to 3 mins by Fluo-4 AM staining based analysis. The assay is classed as cell-based. The following applies: filed as antagonist, time 361-363 min.

Structures are written as SMILES. Activity calls are given as the source filed them. No cut-off for these calls is given here.

For the molecule `CC(C)=C1C/C=C(/C)CC/C=C(\C)CC1OC(=O)[C@@H](C)NC(=O)c1ccc(Cl)cc1` (stereo not given in full), the Activity in the assay on PC-12 [1] is reported as 15.03%; with PC-12 [2], 5.32%; with PC-12 [3], 16.58%.
Regarding `CC(C)=C1C/C=C(/C)CC/C=C(\C)CC1=O`, the values for the Activity in the assay on PC-12 [1], with PC-12 [2] and in the assay on PC-12 [3] were 14.66%, -4.79% and 2.94%, respectively. In assay [4], the result was Active.
As to `CC(C)=C1C/C=C(/C)CC/C=C(\C)CC1OC(=O)[C@H](C)NC(=O)c1ccc(O)cc1` (stereo not given in full), the figures for the Activity in the assay with PC-12 [1], with PC-12 [2] and in the assay with PC-12 [3] were 12.86%, -2.01% and 10.31%, respectively.
`CC(C(O)c1ccc(O)cc1)N1CCC(Cc2ccccc2)CC1` (stereo not given) [IFENPRODIL]: the Activity with PC-12 [1] is given as 18.31%; with PC-12 [2], 31.16%; with PC-12 [3], 22.57%.
As to `CC(C)=C1C/C=C(/C)CC/C=C(\C)CC1OC(=O)[C@H](C)NC(=O)c1ccc(Cl)cc1` (stereo not given in full), the Activity with PC-12 [1] stood at 14.06%; with PC-12 [2], 11.25%; in the assay on PC-12 [3], 15.27%.
Consider `CC(C)=C1C/C=C(/C)CC/C=C(\C)CC1OC(=O)[C@@H](C)NC(=O)c1ccc(O)cc1` (stereo not given in full), for which the results for the Activity with PC-12 [1], in the assay on PC-12 [2] and in the assay with PC-12 [3] were 15.74%, 11.03% and 15.08%, respectively.
On to `CC(C)=C1C/C=C(/C)CC/C=C(\C)CC1OC(=O)[C@@H]1CCC2=Nc3ccccc3CN21` (stereo not given in full), for which the Activity was 29.63% in the assay on PC-12 [1], “Active; Compound Activity Was Superior To Ifenprodil” in assay [4], 24.42% with PC-12 [2] and 26.17% in the assay on PC-12 [3].
`CC(C)=C1C/C=C(/C)CC/C=C(\C)CC1OC(=O)[C@@H]1CCC2=Nc3ccc(Cl)cc3CN21` (stereo not given in full): the Activity with PC-12 [1] is listed as 28.73%; with PC-12 [2], 25.35%; in the assay with PC-12 [3], 28.87%.
In the same order, the values of `CC(C)=C1C/C=C(/C)CC/C=C(\C)CC1OC(=O)[C@H](C)NC(=O)c1ccc(F)cc1` (stereo not given in full) are 15.35%, 16.47% and 12.7%.
As to `CC(C)=C1C/C=C(/C)CC/C=C(\C)CC1OC(=O)[C@@H](C)NC(=O)c1ccc(F)cc1` (stereo not given in full), the Activity with PC-12 [1] stood at 13.93%; in the assay on PC-12 [2] it was 12.32%; with PC-12 [3] it was 9.33%.
Turning to `CC(C)=C1C/C=C(/C)CC/C=C(\C)CC1OC(=O)[C@@H]1CCC2=Nc3ccc(Br)cc3CN21` (stereo not given in full), the Activity amounted to 23.62% in the assay on PC-12 [1], 29.37% in the assay with PC-12 [2] and 28.02% with PC-12 [3].
